In brackets after ≈: the same amount, converted by molar mass. Like-named read-outs stand apart in the source and are kept apart here.
How the values were obtained:
IgE-like antibodies = conditions: in vivo; cited from earlier work
[1] = tested on: cells from the thymus of normal BALB/c mice (lymphocyte proliferation); experiment: comitogen-induced thymocyte proliferation procedure (LAF); assay type: cell-based; conditions: Mus musculus
Description: Immunosuppressive activity was evaluated in an in vitro standard pharmacological test procedure to measure lymphocyte proliferation (LAF).
Briefly, cells from the thymus of normal BALB/c mice are cultured for 72 hours with PHA and IL-1 and pulsed with tritiated thymidine during the last six hours. Cells are cultured with and without various concentrations of rapamycin, cyclosporin A, or test compound. Cells are harvested and incorporated radioactivity is determined. Inhibition of lymphoproliferation is assessed as percent change in counts per minute from non-drug treated controls. The results are expressed as an IC50.

[2] = model for multiple sclerosis; cited from earlier work
[3] = model for rheumatoid arthritis; cited from earlier work
[4] = tested on: Candida albicans ATCC 38246; experiment: antifungal plate test procedure; assay type: cell-based; conditions: ATCC38246, strain ATCC 38246, plate disk test, read-out: MIC to inhibit growth
Description: (§1) Antifungal activity of a representative compound of this invention was measured against 5 strains of Candida albicans using a plate test procedure for measurement of inhibition. The following represents the typical procedure used. Compound to be tested was placed on sterile dried 1/4" plate disks, and allowed to dry. Agar plates were seeded with fungi and allowed to solidify. The impregnated disks were placed on the seeded Agar surface and incubated for the time required for the particular culture.

[5] = tested on: Candida albicans ATCC 38248; experiment: antifungal plate test procedure; assay type: cell-based; conditions: ATCC38248, strain ATCC 38248, plate disk test, read-out: MIC to inhibit growth
Description: as §1

Candida albicans 3669 = experiment: antifungal plate test procedure; assay type: cell-based; conditions: strain 3669, plate disk test, read-out: MIC to inhibit growth
Description: as §1

[6] = tested on: Candida albicans ATCC 38247; experiment: antifungal plate test procedure; assay type: cell-based; conditions: ATCC38247, strain ATCC 38247, plate disk test, read-out: MIC to inhibit growth
Description: as §1

[7] = tested on: Candida albicans ATCC 10231; experiment: antifungal plate test procedure; assay type: cell-based; conditions: ATCC10231, strain ATCC 10231, plate disk test, read-out: MIC to inhibit growth
Description: as §1

Candida albicans = conditions: in vitro and in vivo; cited from earlier work
[8] = cited from earlier work
[9] = read-out: IC50 (LAF), 72 h culture with PHA and IL-1, tritiated thymidine last six hours, table 1

Row | Compound | inhibition of formation of IgE-like antibodies (IgE-like antibodies) | IC50 [1, 9] | IC50 ([1]; read-out: IC50 (LAF), rapamycin-31-acetate and rapamycin evaluated contemporaneously) | effect in experimental allergic encephalomyelitis model [2] | effect in adjuvant arthritis model [3] | MIC [4] | MIC [5] | MIC (Candida albicans 3669) | MIC [6] | MIC [7] | antifungal activity (Candida albicans) | antitumor activity ([8]; in combination with picibanil) | antitumor activity ([8]; rapamycin alone) | IC50 ([1]; rapamycin-31-acetate and rapamycin evaluated contemporaneously, read-out: IC50 (LAF))
1 | CO[C@H]1C[C@@H]2CC[C@@H](C)[C@@](O)(O2)C(=O)C(=O)N2CCCC[C@H]2C(=O)O[C@H]([C@H](C)C[C@@H]2CC[C@@H](O)[C@H](OC)C2)CC(=O)[C@H](C)/C=C(\C)[C@@H](O)[C@@H](OC)C(=O)[C@H](C)C[C@H](C)/C=C/C=C/C=C/1C [Rapamycin] | effectively inhibited the formation of IgE-like antibodies | 3.2 nM | 7.8 nM | effective | effective | 0.025 µg/mL (≈ 0.0273 µM) | 0.006 µg/mL (≈ 0.00656 µM) | 0.025 µg/mL (≈ 0.0273 µM) | 0.003 µg/mL (≈ 0.00328 µM) | 0.003 µg/mL (≈ 0.00328 µM) | antifungal activity, particularly against Candida albicans, both in vitro and in vivo | shown to have antitumor activity | shown to have antitumor activity | 
2 | CO[C@H]1C[C@@H]2CC[C@@H](C)[C@@](O)(O2)C(=O)C(=O)N2CCCC[C@H]2C(=O)O[C@H]([C@H](C)C[C@@H]2CC[C@@H](O[Si](C)(C)C(C)(C)C)[C@H](OC)C2)CC(=O)[C@H](C)/C=C(\C)[C@@H](O)[C@@H](OC)C(=O)[C@H](C)C[C@H](C)/C=C/C=C/C=C/1C [Example 1, Rapamycin 42-O-[(1,1-Dimethylethyl)dimethylsilyl]ether] |  | 45.8 nM |  |  |  | > 0.4 µg/mL | > 0.4 µg/mL | > 0.4 µg/mL | 0.2 µg/mL (≈ 0.194 µM) | 0.2 µg/mL (≈ 0.194 µM) |  |  |  | 
3 | CO[C@H]1C[C@@H]2CC[C@@H](C)[C@@](O)(O2)C(=O)C(=O)N2CCCC[C@H]2C(=O)O[C@H]([C@H](C)C[C@@H]2CC[C@@H](O)[C@H](OC)C2)CC(=O)[C@H](C)/C=C(\C)[C@@H](OC(C)=O)[C@@H](OC)C(=O)[C@H](C)C[C@H](C)/C=C/C=C/C=C/1C [rapamycin-31-acetate, Rapamycin 31-acetate] |  |  |  |  |  |  |  |  |  |  |  |  |  | 56.5 nM
